Assay results: ChEMBL document CHEMBL5344474, “Molecular editing of NSC-666719 enabling discovery of benzodithiazinedioxide-guanidines as anticancer agents” (RSC Med Chem, 2024)

Columns and labels:
[1] = tested on: MCF7; experiment: Antiproliferative activity against human MCF7 cells incubated for 72 hrs by MTT assay; settings: MCF7, 72 h
[2] = tested on: MDA-MB-231; experiment: Antiproliferative activity against human MDA-MB-231 cells incubated for 72 hrs by MTT assay; settings: MDA-MB-231, 72 h
[3] = tested on: HCT-116; experiment: Antiproliferative activity against human HCT-116 cells incubated for 72 hrs by MTT assay; settings: HCT-116, 72 h
[4] = tested on: SCC-9; experiment: Antiproliferative activity against human SCC-9 cells incubated for 72 hrs by MTT assay; settings: SCC-9, 72 h
[5] = Cytotoxicity against HEK293 cells incubated for 72 hrs by MTT assay; settings: human
[6] = Selectivity index, ratio of IC50 for HEK293 cells to IC50 for human MCF7 cells; settings: HEK293 cells versus MCF7 cells
[7] = Selectivity index, ratio of IC50 for HEK293 cells to IC50 for human MDA-MB-231 cells; settings: HEK293 cells versus MDA-MB-231 cells
[8] = Selectivity index, ratio of IC50 for HEK293 cells to IC50 for human HCT-116 cells; settings: HEK293 cells versus HCT-116 cells
[9] = tested on: MCF7; experiment: cells; settings: Homo sapiens, MCF7, 48 h, read-out: Activity
Description: Induction of apoptosis in human MCF7 cells assessed as viable cells at 0.5 uM incubated for 48 hrs by Annexin-V/FITC staining based flow cytometry analysis (Rvb = 99.3 +/- 0.12 %)

[10] = tested on: MCF7; experiment: cells; settings: Homo sapiens, MCF7, 48 h, read-out: Activity; remark: listed apart in the source
Description: Induction of apoptosis in human MCF7 cells assessed as viable cells at 2 uM incubated for 48 hrs by Annexin-V/FITC staining based flow cytometry analysis (Rvb = 99.3 +/- 0.12 %)

[11] = tested on: MCF7; experiment: cells; settings: Homo sapiens, MCF7, 48 h, read-out: Activity; remark: listed apart in the source
Description: Induction of apoptosis in human MCF7 cells assessed as viable cells at 0.8 uM incubated for 48 hrs by Annexin-V/FITC staining based flow cytometry analysis (Rvb = 99.3 +/- 0.12 %)

IC50 [1] [nM]	IC50 [2] [nM]	IC50 [3] [nM]	Structure (SMILES)	IC50 [4] [nM]	IC50 at 72 h [5] [nM]	selectivity ratio [6]	selectivity ratio [7]	selectivity ratio [8]	viability at 0.5 µM [9] [%]	viability at 2 µM [10] [%]	viability at 0.8 µM [11] [%]
4400	5500	4900	Cc1cc(S(=O)(=O)Nc2nc(Nc3ccc4ccccc4c3)n[nH]2)c(S)cc1Cl	4000	–	–	–	–	–	–	–
1300	2600	3200	Cc1cc2c(cc1Cl)SC(/N=C(/N)Nc1cccc3cnccc13)=NS2(=O)=O	1200	72200	> 65	> 65	> 65	–	–	–
1000	2500	4000	Cc1cc2c(cc1Cl)SC(/N=C(/N)Nc1cnc3ccccn3c1=O)=NS2(=O)=O	900	66500	> 65	> 65	> 65	–	–	–
800	2100	2800	Cc1cc2c(cc1Cl)SC(/N=C(/N)Nc1ccnc3cc(Cl)ccc13)=NS2(=O)=O	1000	65000	> 65	> 65	> 65	64.9	14.8	27.4
2800	3200	4100	Cc1cc(S(=O)(=O)Nc2nc(NC(=O)c3ccc4ccccc4c3)n[nH]2)c(S)cc1Cl	2600	–	> 65	> 65	> 65	–	–	–
1800	2600	3800	Cc1cc(S(=O)(=O)Nc2nc(Nc3cncc4ccccc34)n[nH]2)c(S)cc1Cl	2100	–	> 65	> 65	> 65	–	–	–
1100	2400	4400	Cc1cc2c(cc1Cl)SC(/N=C(/N)Nc1ccc(N3CCOCC3)cc1)=NS2(=O)=O	1200	70100	> 65	> 65	> 65	–	–	–
